Measured values published in publication PMC7486443, “Generation of Phenothiazine with Potent Anti-TLK1 Activity for Prostate Cancer Therapy” (iScience, 2020).

Experiments:
Assay in all cases: biochemical
Parameters in all cases: DiscoverX KINOMEscan scanMAX competition binding panel, single concentration, percent of control; remaining binding: dose or concentration left out as unconfirmed
Settings in all cases: KINOMEscan binding, percent of control; read-out: Table S4_SCANMAX REPORT - related to Fig. 1 / Percent Control
[1] = target: CDK8 (Homo sapiens, UniProt P49336)
[2] = target: FRK (Homo sapiens, UniProt P42685)
[3] = target: RIOK2 (Homo sapiens, UniProt Q9BVS4)
[4] = target: TNK2 (Homo sapiens, UniProt Q07912)
[5] = target: T1, PFCDPK1(P.falciparum) (Plasmodium falciparum, UniProt P62344)
T1 construct: gene CDPK1

[6] = target: PIK3CA (Homo sapiens, UniProt P42336)
[7] = target: CAMKK1 (Homo sapiens, UniProt Q8N5S9)
[8] = target: BTK (Homo sapiens, UniProt Q06187)
[9] = target: EGFR(E746-A750del) (Homo sapiens, UniProt P00533, DEL746-750)
[10] = target: MAP4K3 (Homo sapiens, UniProt Q8IVH8)
[11] = target: EPHA2 (Homo sapiens, UniProt P29317)
[12] = target: SIK2 (Homo sapiens, UniProt Q9H0K1)
[13] = target: MAP4K2 (Homo sapiens, UniProt Q12851)
[14] = target: T2, YANK2 (Homo sapiens, UniProt Q9NY57)
T2 construct: gene STK32B

[15] = target: MST1R (Homo sapiens, UniProt Q04912)
[16] = target: T3, HPK1 (Homo sapiens, UniProt Q92918)
T3 construct: gene MAP4K1

[17] = target: PLK1 (Homo sapiens, UniProt P53350)
[18] = target: PDGFRA (Homo sapiens, UniProt P16234)
[19] = target: TTK (Homo sapiens, UniProt P33981)

BTK, sequence (Q06187 whole entry): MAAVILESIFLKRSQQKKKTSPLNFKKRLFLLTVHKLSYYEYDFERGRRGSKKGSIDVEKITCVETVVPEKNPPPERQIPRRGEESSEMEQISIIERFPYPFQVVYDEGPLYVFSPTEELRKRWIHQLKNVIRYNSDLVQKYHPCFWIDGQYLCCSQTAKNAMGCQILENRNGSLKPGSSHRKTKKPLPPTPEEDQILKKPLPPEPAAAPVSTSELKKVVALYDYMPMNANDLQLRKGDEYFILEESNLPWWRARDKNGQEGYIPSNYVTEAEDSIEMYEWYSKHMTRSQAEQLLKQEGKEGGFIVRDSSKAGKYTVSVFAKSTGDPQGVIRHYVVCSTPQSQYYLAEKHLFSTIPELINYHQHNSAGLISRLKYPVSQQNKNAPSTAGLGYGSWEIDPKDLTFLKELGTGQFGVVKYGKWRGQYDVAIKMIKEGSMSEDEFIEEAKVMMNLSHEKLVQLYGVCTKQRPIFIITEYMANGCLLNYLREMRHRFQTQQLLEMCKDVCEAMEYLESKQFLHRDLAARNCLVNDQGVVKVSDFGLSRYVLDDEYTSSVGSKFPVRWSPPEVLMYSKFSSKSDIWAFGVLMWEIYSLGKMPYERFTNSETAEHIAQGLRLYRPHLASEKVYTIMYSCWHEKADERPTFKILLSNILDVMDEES
MAP4K3, sequence (Q8IVH8 whole entry): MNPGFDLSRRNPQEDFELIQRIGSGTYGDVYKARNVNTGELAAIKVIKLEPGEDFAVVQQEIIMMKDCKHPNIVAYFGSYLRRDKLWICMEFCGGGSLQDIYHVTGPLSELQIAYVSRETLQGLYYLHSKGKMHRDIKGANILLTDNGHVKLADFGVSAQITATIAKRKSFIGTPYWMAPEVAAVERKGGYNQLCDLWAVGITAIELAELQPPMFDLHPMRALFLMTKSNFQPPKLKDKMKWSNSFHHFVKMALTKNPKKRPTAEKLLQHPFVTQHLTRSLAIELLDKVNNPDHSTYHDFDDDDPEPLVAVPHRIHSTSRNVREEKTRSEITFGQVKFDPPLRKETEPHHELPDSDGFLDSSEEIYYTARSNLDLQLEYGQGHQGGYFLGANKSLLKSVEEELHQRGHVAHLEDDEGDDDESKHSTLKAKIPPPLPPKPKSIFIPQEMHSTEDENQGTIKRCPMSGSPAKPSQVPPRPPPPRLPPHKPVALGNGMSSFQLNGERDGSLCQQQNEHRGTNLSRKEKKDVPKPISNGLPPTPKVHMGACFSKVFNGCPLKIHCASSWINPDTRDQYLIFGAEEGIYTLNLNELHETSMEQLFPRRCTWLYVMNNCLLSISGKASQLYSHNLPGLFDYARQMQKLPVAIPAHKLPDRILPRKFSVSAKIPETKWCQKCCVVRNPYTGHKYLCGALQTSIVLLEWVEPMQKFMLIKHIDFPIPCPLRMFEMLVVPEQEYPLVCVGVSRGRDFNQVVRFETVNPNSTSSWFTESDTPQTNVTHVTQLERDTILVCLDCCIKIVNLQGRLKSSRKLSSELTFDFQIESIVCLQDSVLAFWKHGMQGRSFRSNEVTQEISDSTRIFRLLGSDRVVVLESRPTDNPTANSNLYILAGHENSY
EGFR(E746-A750del), sequence (P00533 with tags, fused parts or gaps DEL746-750): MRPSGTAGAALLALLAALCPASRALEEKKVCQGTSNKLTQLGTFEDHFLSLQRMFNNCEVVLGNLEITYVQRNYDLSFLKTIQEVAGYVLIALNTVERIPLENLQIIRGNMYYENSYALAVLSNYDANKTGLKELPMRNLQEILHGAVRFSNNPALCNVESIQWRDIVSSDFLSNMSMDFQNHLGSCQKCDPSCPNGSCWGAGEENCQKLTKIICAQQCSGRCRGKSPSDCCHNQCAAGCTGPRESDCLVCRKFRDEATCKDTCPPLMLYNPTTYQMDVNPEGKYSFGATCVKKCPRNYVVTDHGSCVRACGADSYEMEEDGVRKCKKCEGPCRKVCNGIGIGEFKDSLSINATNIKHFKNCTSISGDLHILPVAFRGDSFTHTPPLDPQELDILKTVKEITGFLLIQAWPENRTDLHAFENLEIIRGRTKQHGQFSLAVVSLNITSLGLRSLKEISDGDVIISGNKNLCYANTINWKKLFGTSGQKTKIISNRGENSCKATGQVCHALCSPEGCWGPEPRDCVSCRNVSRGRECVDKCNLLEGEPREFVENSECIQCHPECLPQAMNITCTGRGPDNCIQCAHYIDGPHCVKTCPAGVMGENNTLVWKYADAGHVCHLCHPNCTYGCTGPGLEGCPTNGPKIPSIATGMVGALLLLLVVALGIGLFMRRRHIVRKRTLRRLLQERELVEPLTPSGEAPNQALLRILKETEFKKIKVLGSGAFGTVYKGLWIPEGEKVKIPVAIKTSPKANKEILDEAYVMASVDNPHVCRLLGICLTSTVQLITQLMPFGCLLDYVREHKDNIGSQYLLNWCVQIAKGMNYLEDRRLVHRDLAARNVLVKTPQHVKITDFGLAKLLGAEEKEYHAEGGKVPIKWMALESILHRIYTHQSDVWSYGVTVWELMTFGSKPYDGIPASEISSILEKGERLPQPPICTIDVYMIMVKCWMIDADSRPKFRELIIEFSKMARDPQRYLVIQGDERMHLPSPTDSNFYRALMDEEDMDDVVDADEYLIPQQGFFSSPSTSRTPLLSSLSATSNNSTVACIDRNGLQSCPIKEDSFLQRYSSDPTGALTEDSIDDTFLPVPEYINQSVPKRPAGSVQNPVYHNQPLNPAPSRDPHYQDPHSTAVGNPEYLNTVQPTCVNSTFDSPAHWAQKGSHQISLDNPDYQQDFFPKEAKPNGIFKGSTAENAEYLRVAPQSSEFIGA
SIK2, sequence (Q9H0K1 whole entry): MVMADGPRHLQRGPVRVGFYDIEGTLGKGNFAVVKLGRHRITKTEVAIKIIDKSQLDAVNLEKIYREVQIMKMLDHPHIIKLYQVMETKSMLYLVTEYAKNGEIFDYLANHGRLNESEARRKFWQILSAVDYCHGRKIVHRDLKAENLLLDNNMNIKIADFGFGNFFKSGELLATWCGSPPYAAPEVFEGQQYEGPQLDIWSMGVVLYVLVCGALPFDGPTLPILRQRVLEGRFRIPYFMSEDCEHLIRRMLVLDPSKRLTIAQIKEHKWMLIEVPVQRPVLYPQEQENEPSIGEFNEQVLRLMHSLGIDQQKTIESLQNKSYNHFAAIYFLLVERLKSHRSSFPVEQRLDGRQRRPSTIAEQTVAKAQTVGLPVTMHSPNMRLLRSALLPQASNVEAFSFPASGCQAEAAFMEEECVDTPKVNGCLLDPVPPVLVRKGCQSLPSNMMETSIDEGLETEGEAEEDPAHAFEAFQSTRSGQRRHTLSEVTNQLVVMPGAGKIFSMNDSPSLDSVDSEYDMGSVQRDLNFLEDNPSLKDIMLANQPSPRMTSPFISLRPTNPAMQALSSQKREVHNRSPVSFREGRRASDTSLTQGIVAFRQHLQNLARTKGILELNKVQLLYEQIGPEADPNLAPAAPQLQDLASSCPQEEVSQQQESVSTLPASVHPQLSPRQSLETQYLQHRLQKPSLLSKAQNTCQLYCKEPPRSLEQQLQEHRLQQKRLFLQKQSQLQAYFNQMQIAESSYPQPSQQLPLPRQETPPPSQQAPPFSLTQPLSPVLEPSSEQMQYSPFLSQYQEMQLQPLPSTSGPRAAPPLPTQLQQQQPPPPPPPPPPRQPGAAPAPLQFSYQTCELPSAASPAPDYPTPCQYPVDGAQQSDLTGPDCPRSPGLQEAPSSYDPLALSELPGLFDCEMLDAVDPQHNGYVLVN
RIOK2, sequence (Q9BVS4 whole entry): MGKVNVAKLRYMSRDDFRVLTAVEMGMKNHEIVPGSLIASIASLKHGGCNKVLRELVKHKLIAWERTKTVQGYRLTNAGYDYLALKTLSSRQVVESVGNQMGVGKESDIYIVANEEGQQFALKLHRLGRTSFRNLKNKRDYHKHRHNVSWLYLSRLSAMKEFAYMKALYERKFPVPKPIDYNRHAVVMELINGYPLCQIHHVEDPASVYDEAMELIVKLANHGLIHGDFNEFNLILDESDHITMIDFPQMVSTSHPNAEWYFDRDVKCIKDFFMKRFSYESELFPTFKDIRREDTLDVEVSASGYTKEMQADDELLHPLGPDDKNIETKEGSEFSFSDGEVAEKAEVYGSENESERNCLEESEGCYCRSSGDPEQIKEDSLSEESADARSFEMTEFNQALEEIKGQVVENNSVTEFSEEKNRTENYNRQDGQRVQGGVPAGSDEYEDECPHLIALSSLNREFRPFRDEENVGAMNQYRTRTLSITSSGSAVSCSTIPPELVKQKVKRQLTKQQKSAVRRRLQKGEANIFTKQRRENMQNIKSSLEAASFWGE
CDK8, sequence (P49336 whole entry): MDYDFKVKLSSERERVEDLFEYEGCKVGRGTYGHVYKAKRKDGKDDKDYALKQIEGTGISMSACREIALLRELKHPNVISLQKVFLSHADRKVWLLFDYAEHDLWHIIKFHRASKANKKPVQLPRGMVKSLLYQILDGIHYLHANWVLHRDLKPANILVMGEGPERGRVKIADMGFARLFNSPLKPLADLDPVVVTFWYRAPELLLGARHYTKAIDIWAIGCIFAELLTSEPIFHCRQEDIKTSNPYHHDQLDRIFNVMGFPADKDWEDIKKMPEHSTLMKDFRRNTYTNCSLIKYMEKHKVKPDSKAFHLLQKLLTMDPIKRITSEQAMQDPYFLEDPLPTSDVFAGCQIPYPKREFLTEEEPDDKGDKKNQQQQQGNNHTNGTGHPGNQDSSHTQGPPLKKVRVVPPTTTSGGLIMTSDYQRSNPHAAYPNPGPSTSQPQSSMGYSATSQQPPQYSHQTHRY

c1ccc2c(c1)Sc1ccccc1N2CCN1CCOCC1 [J54]
remaining binding [1]: 100%
remaining binding [2]: 100%
remaining binding [3]: 100%
remaining binding [4]: 100%
remaining binding [5]: 100%
remaining binding [6]: 94%
remaining binding [7]: 100%
remaining binding [8]: 97%
remaining binding [9]: 76%
remaining binding [10]: 100%
remaining binding [11]: 100%
remaining binding [12]: 97%
remaining binding [13]: 100%
remaining binding [14]: 100%
remaining binding [15]: 100%
remaining binding [16]: 100%
remaining binding [17]: 100%
remaining binding [18]: 100%
remaining binding [19]: 17%
